Test results: patent publication US20160115200A1, “New Use for JNK Inhibitor Molecules for Treatment of Various Diseases” (XIGEN INFLAMMATION LTD., priority 2013, published 2016)
Square brackets hold non-standard residues; d marks the D form. Ends that are not written are not given here.

Assays:
[1] = tested on: primary rat lymph-nodes purified T cells; experiment: CD3/CD28-induced IL-2 release in primary rat lymph-nodes purified T cells; assay type: cell-based; conditions: inhibitor 1 h before CD3/CD28 (2 μg/mL), supernatant after 24 h
Method: Control rat were sacrificed and lymph-nodes were harvested. T cells further were purified (using magnetic negative selection) and plated into 96-well plates at 200.000 cells/well. Cells were treated with anti-rat CD3 and anti-rat CD28 antibodies (2 μg/mL). JNK inhibitor with SEQ ID NO: 172 was added to the cultures 1 h before CD3/CD28 treatment and IL-2 release was assessed in supernatant 24 h after treatment.
Control animal were sacrificed, lymph nodes (LN) were harvested and kept in complete RPMI medium. LN were smashed with complete RPMI on 70 μm filter using a 5 ml piston. A few drops of media were added to keep strainer wet. Cells were centrifuged for 7 min at 450 g and 4° C. Pellet was resuspended in 5 ml fresh medium. Cells were passed again through cell strainer. An aliquot of cells was counted, while cells were centrifuged again 10 min at 1400 rpm and 4° C. Cells were resupended in MACS buffer (80 μl of MACS buffer per 10^7 cells). 10 μl of anti-rat MHC microbeads were added per 10 million cells, cells were incubated for 15 min at 4°-8° C. Cells were washed with 15 ml MACS buffer and centrifuge for 7 min at 700 g and 4° C. […] Resuspended cells were counted and plated at density of 200000 cells/well in 100 μl of complete medium. […] Cytokines were then measured using standard Elisa kits. Results are expressed as pg/ml of supernatant of the measured cytokine. […]

[2] = tested on: endotoxins-induced uveitis albino rat model; experiment: Endotoxins-induced uveitis (EIU), single intravenous injection, clinical scoring 24 h after LPS; assay type: in vivo; parameters: key to EIU clinical score, median: clinical score per eye, 0 to 4 scale
Method: The aim of this study was to determine the effects of single intravenous injections of SEQ ID NO: 172 (0.015, 0.18, and 1.80 mg/kg) on the inflammatory response in an endotoxins-induced uveitis albino rat model and to compare these affects to those obtained with prior art JNK inhibitor of SEQ ID NO: 197 (2 mg/kg). As a further control served phosphate sodic dexamethasone.
Sixty (60) male Lewis rats were randomly divided into six (6) groups of ten (10) animals each. EIU was induced by footpad injection of lipopolysaccharide (LPS, 1 mg/kg). NaCl (0.9%), SEQ ID NO: 197 at 2 mg/kg and SEQ ID NO: 172 at three concentrations (1.80 mg/kg, 0.18 mg/kg and 0.015 mg/kg) were administered by intravenous injection. Phosphate sodic dexamethasone (20 μg/eye) was administered by sub-conjunctival injection in both eyes. 24 hours after LPS injection, inflammatory response was evaluated by clinical scoring.
The intensity of clinical ocular inflammation was scored on a scale from 0 to 4 for each eye: […]

[3] = tested on: mouse model of scopolamine-induced dry eye; experiment: Scopolamine-induced dry eye in mice (TBUT, PRTT, histopathology); assay type: in vivo
Source text: The objective of this study was to assess the effects of two different compounds, the all-D-retro-inverso JNK-inhibitor (poly-)peptide of SEQ ID NO: 197 and the JNK inhibitor (poly-)peptide of SEQ ID NO: 172, at three dose levels in a mouse model of scopolamine-induced dry eye.
The study consisted of a total of 9 groups of female C57BL/6 mice, comprising 8 groups of 12 mice each and an additional group of 4 mice. Bilateral short-term dry eye was induced by a combination of scopolamine hydrobromide (Sigma-Aldrich Corp., St. Louis, Mo.) injection (subcutaneous (SC), four times daily, 0.5 mg/dose, Days 0-21) and by exposing mice to the drying environment of constant air draft. […] Mice of Group 9 were maintained as un-induced, (no dry eye) untreated controls.
During the in-life (treatment) period, clinical observations were recorded once daily; slit-lamp examination (SLE) with corneal fluorescein staining, tear break-up time test (TBUT), and phenol red thread test (PRTT) were performed three times per week. Necropsies were performed on Day 22; eyes, eye lids, conjunctivae, and lacrimal glands were collected from both eyes of each animal. Tissues from the right eyes (oculus dexter, OD) were fixed and then evaluated microscopically. Tissues from the left eyes (oculus sinister; OS) were flash-frozen in liquid nitrogen and stored frozen at −80° C. for possible subsequent analyses.
The TBUT test was conducted three times weekly by measuring the time elapsed in seconds between a complete blink after application of fluorescein to the cornea and the appearance of the first random dry spot in the tear film. […] At least ninety seconds later, corneal epithelial damage was graded using a slit-lamp with a cobalt blue filter after another drop of 0.1% fluorescein was reapplied to the cornea; the cornea then was scored per the Draize ocular scale.
Tear production was measured three times a week in both eyes using PRTT test strips (Zone-Quick; Menicon, Nagoya, Japan). Prior to the first treatment of the day, a thread was applied to the lateral canthus of the conjunctival fornix of each eye for 30 seconds under slit-lamp biomicroscopy. Tear migration up the tread (i.e., the length of the wetted cotton thread) was measured using a millimeter scale.
At necropsy on Day 22, both eyes from each animal, including the globes, lacrimal glands, eyelids, and conjunctivae, were excised. The right eye and associated tissues were fixed by overnight submersion in modified Davidson's solution followed by transfer to 10% neutral buffered formalin (NBF). The fixed tissues of the right eye were dehydrated, embedded in paraffin, sectioned at 3 to 5-μm thicknesses, and slide-mounted tissues were stained with hematoxylin and eosin (H & E). Stained slides were evaluated via light microscopy. Detailed and complete histopathologic assessment was conducted on all parts of the eye, with at least two section levels being examined histopathologically for each right eye. Special attention was paid to the cornea, epithelia (including goblet cells) of the conjunctiva and cornea, as well as the lacrimal gland. These tissues were scored for injury based upon a 0-4 scale, with 0 being normal, 1 being minimal, 2 being mild, 3 being moderate, and 4 being severe. For each cornea, scores were based on corneal epithelium thickness, and corneal inflammation. Conjunctivae were scored for erosion and inflammation as well as presence or absence of goblet cells.

[4] = 2 mg/kg i.v., 24 hours after LPS

dqsrpvqpflnlttprkprpprrrqrrkkrg ([dD][dQ][dS][dR][dP][dV][dQ][dP][dF][dL][dN][dL][dT][dT][dP][dR][dK][dP][dR][dP][dP][dR][dR][dR][dQ][dR][dR][dK][dK][dR]G) [SEQ ID NO: 197, reference compound]
CD3/CD28-induced IL-2 release [1]: Dose-dependent inhibition | EIU clinical score, median [2, 4]: 2 | decrease of EIU scores compared with vehicle group [2, 4]: 40% | EIU clinical score, mean±SEM ([2]; 2 mg/kg i.v., 24 hours after LPS, scale 0 to 4 (+1)): 2.2±0.3 | endotoxin-induced inflammation in the anterior chamber ([2]; single intravenous injection 2 mg/kg): partially prevented the endotoxin-induced inflammation | Mean PRTT AUC ([3]; Day 7-21, high dose 0.6% (SEQ ID NO: 197 Group 4; SEQ ID NO: 172 Group 7)): 43.17 | Mean PRTT AUC ([3]; Day 7-21, low dose (SEQ ID NO: 197 0.06% Group 2; SEQ ID NO: 172 0.05% Group 5)): 39.96 | Mean PRTT AUC ([3]; Day 7-21, mid dose (SEQ ID NO: 197 0.25% Group 3; SEQ ID NO: 172 0.2% Group 6)): 42.79 | Mean Calculated TBUT AUC ([3]; Day 7 to Day 21, high dose 0.6% (SEQ ID NO: 197 Group 4; SEQ ID NO: 172 Group 7)): 89.98 | Mean Calculated TBUT AUC ([3]; Day 7 to Day 21, low dose (SEQ ID NO: 197 0.06% Group 2; SEQ ID NO: 172 0.05% Group 5)): 88.54 | Mean Calculated TBUT AUC ([3]; Day 7 to Day 21, mid dose (SEQ ID NO: 197 0.25% Group 3; SEQ ID NO: 172 0.2% Group 6)): 91.19 | PRTT change with dose ([3]; SEQ ID NO: 197 0.06%, 0.25% and 0.6%, Groups 2, 3 and 4): generally dose-dependent increases in PRTT | TBUT change with dose ([3]; SEQ ID NO: 197 low, mid and high dose (Groups 2-4)): slight generally dose-dependent increases in TBUT | corneal changes (histology) compared with other treatment groups ([3]; low dose SEQ ID NO: 197 (Group 2)): slightly more severe | histological cornea scores compared with cyclosporine group ([3]; mid and high-dose SEQ ID NO: 172 (Groups 6, 7), high-dose SEQ ID NO: 197 (Group 4)): not significantly different than the cyclosporine group scores
